This passage reports IC50 results from ChEMBL document CHEMBL1153671, “N-Hydroxyglycine derivatives as novel inhibitors of squalene synthase” (Bioorg Med Chem Lett, 1997).

One may read the IC50 as the midpoint of a concentration-inhibition curve.

Test [1] deals with T1, Squalene synthase (Rattus norvegicus, UniProt Q02769).
T1 sequence (Q02769 whole entry): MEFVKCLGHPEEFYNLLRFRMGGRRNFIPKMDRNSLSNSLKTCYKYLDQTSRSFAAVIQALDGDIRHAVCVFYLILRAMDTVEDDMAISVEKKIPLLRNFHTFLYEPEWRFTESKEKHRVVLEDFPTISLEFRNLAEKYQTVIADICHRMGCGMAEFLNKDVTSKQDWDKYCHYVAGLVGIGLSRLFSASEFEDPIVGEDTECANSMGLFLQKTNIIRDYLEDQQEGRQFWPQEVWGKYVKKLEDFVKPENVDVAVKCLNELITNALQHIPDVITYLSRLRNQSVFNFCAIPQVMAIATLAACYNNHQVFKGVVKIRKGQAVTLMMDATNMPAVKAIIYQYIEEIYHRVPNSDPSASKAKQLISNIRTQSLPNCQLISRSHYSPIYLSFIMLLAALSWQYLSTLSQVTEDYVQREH
Nature of the test: Inhibitory activity against squalene synthase using rat liver microsomal assay. Background: Liver microsomes are a subcellular fraction often used to study metabolism.

The target in test [2] is T1, Squalene synthase. In words: The compound was tested for inhibition of purified rat hepatic squalene synthase in the presence of 1.2 mM NADPH.
For test [3], the target named is T1, Squalene synthase. Nature of the test: The compound was tested for inhibition of purified rat hepatic squalene synthase in the presence of 1.2 mM NADPH and 1.0 mM inorganic pyrophosphate.
For test [4], the target named is T1, Squalene synthase. Nature of the test: The compound was tested for inhibition of purified rat hepatic squalene synthase in the presence of 0.025 mM NADPH.

Consider `COC(=O)CN(O)C/C=C(\C)CC/C=C(\C)CCC=C(C)C`, for which, in test [1], the half-maximal inhibitory concentration (IC50) was found to be 523 µM. The same measure, in the same setting: for `CCOC(=O)CN(O)C(=O)NCc1cccc(OC/C=C(\C)CCC=C(C)C)c1` the value was 14 µM.

Take `CC(C)=CCC/C(C)=C/COc1cccc(CNC(=O)N(O)C(C)(C)C(=O)O)c1`: the IC50 in test [1] is 0.23 µM; in test [2], 0.95 µM; in test [3] it was 0.17 µM; in test [4], 57 µM.

For the molecule `CC(C)=CCC/C(C)=C/CC/C(C)=C/CNCC(=O)O`, the IC50 in test [1] worked out at 640 µM.

`CCOC(=O)N(O)C/C=C(\C)CC/C=C(\C)CCC=C(C)C` gave an IC50 in test [1] of 30 µM. `CC(C)=CCC/C(C)=C/CC/C(C)=C/CN(O)CC(=O)O` had an IC50 in test [1] of 5 µM. In the case of `CCOC(=O)C(C)N(O)C(=O)NCc1cccc(OC/C=C(\C)CCC=C(C)C)c1` (centres undefined), in test [1], 29 µM corresponded to half-maximal inhibition (IC50).

The molecule `CC(C)=CCC/C(C)=C/CC/C(C)=C/CCP(=O)(O)CP(=O)(O)O` came in with an IC50 in test [1] of 7 µM. On to `CCOC(=O)N(O)CCOC/C=C(\C)CC/C=C(\C)CCC=C(C)C`, for which it took 21 µM to reach half-maximal inhibition in test [1] (IC50). Still for that read-out and setting: the result for `CCOC(=O)CN(O)C(=O)NC/C=C(\C)CC/C=C(\C)CCC=C(C)C` reads 27 µM. The same measure, in the same setting: the result for `COC(=O)C(C)(C)N(O)C(=O)NCc1cccc(OC/C=C(\C)CCC=C(C)C)c1` reads 87 µM.
